In ChEMBL document CHEMBL1152680, “Peptide inhibitors of HIV-1 integrase: from mechanistic studies to improved lead compounds” (Bioorg Med Chem, 2009):
The source made the active and inactive calls. The rule behind the calls is not given here.

Tests used:
[1] = tested on: Human immunodeficiency virus 1; experiment: Antiviral activity against HIV1 infected in human SupT1 cells assessed as change in total amount of viral DNA at 0.5 to 62.5 uM treated 2 hrs before viral infection measured after 24 hrs by real time PCR analysis; assay type: functional, organism-based; settings: SUP-T1
[2] = target: Human immunodeficiency virus type 1 integrase (Human immunodeficiency virus 1) (UniProt Q7ZJM1); experiment: Binding affinity to HIV1 integrase catalytic core domain (118-132) by ELISA
[3] = target: Human immunodeficiency virus type 1 integrase (Human immunodeficiency virus 1) (UniProt Q7ZJM1); experiment: Ratio of compound to IN1 activity for inhibition of viral DNA binding to histidine-tagged HIV1 full length integrase
[4] = tested on: Human immunodeficiency virus 1; experiment: Antiviral activity against HIV1 infected in human TZM-bl cells assessed as inhibition of viral replication at 62.5 uM treated 2 hrs before viral infection measured after 2 days by MAGI assay; assay type: functional; settings: Human immunodeficiency virus 1, TZM-bl
[5] = target: Human immunodeficiency virus type 1 integrase (Human immunodeficiency virus 1) (UniProt Q7ZJM1); experiment: Binding affinity to HIV1 integrase DNA binding domain (240-260) by ELISA
[6] = Cellular uptake in cytoplasm of human HeLa cells at 10 uM after 2 hrs by confocal microscopy; assay type: ADME, cell-based
[7] = target: Human immunodeficiency virus type 1 integrase (Human immunodeficiency virus 1) (UniProt Q7ZJM1); experiment: Inhibition of viral DNA binding to dimeric histidine-tagged HIV1 full length integrase treated for 20 mins before addition of fluorescein-labeled viral LTR DNA by fluorescence anisotropy
[8] = target: Human immunodeficiency virus type 1 integrase (Human immunodeficiency virus 1) (UniProt Q7ZJM1); experiment: Binding affinity to dimeric histidine-tagged HIV1 full length integrase by analytical gel filtration
[9] = tested on: Human immunodeficiency virus 1; experiment: Antiviral activity against HIV1 infected in human TZM-bl cells assessed as inhibition of viral replication treated 2 hrs before viral infection; assay type: functional, organism-based
[10] = target: T1, Human immunodeficiency virus type 1 integrase (Human immunodeficiency virus 1, UniProt Q7ZJM1); experiment: Binding affinity to histidine-tagged HIV1 full length integrase by fluorescence anisotropy
[11] = target: Human immunodeficiency virus type 1 integrase (Human immunodeficiency virus 1) (UniProt Q7ZJM1); experiment: Inhibition of integration activity of histidine-tagged HIV1 full length integrase at enzyme to peptide molar ratio of 1:50; settings: concentration not given here
[12] = Cellular uptake in nucleus of human HeLa cells at 10 uM after 2 hrs by confocal microscopy; assay type: ADME, cell-based
[13] = target: Human immunodeficiency virus type 1 integrase (Human immunodeficiency virus 1) (UniProt Q7ZJM1); experiment: Inhibition of histidine-tagged HIV1 full length integrase assessed as inhibition of viral DNA integration into human SupT1 cellular genome at 62.5 uM treated 2 hrs before viral infection measured after 24 hrs by real time PCR analysis; assay type: cell-based
[14] = target: Human immunodeficiency virus type 1 integrase (Human immunodeficiency virus 1) (UniProt Q7ZJM1); experiment: Binding affinity to HIV1 integrase catalytic core domain (94-112) by ELISA
[15] = target: Human immunodeficiency virus type 1 integrase (Human immunodeficiency virus 1) (UniProt Q7ZJM1); experiment: Inhibition of integration activity of histidine-tagged HIV1 full length integrase at 76 uM
[16] = target: T1, Human immunodeficiency virus type 1 integrase; experiment: Binding affinity to tetrameric histidine-tagged HIV1 full length integrase by fluorescence anisotropy
[17] = target: Human immunodeficiency virus type 1 integrase (Human immunodeficiency virus 1) (UniProt Q7ZJM1); experiment: Binding affinity to HIV1 integrase catalytic core domain (70-84) by ELISA
[18] = target: Human immunodeficiency virus type 1 integrase (Human immunodeficiency virus 1) (UniProt Q7ZJM1); experiment: Binding affinity to tetrameric histidine-tagged HIV1 full length integrase by analytical gel filtration
[19] = Solubility of the compound; assay type: physicochemical
[20] = target: Human immunodeficiency virus type 1 integrase (Human immunodeficiency virus 1) (UniProt Q7ZJM1); experiment: Inhibition of viral DNA binding to tetrameric histidine-tagged HIV1 full length integrase treated for 20 mins before addition of fluorescein-labeled viral LTR DNA by fluorescence anisotropy

Sequence of Human immunodeficiency virus type 1 integrase (Human immunodeficiency virus 1) (Q7ZJM1 as listed by the source): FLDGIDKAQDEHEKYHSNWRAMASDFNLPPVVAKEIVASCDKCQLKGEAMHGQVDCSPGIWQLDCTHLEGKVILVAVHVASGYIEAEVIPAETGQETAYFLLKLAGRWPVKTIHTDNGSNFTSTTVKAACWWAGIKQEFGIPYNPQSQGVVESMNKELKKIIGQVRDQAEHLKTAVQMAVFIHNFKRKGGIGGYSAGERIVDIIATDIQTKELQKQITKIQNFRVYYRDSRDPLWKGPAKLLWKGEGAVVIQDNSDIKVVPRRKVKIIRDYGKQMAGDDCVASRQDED
T1 sequence (Q7ZJM1 whole entry): as the sequence (Q7ZJM1 as listed by the source) above

| Substance | Activity [1] | Activity [2] | Ratio [3] | inhibition at 62.5 µM [4] [%] | Activity [5] | Drug uptake [6] | inhibition [7] | Activity [8] | inhibition [9] | Kd ([10]; read-out: Kd) [nM] | inhibition [11] [%] | Drug uptake [12] | inhibition [13] [%] | Activity [14] | inhibition [15] [%] | further results |
| --- | --- | --- | --- | --- | --- | --- | --- | --- | --- | --- | --- | --- | --- | --- | --- | --- |
| H-WFVLLTITVLR-OH [WFVLLTITVLR] | inactive | Active | 2 | 29 | Active | Active | Active | Active | Dose-dependent effect | 1800 | 24 | Active | 23 |  |  |  |
| H-WITVLR-OH |  |  |  |  |  |  | Active |  | Dose-dependent effect |  |  |  |  |  |  | Kd [10]: Not Active |
| H-WQCLTLTHRG-OH | inactive | Active | 2 | 68 |  | Active | Active | Active | Dose-dependent effect | 1700 |  | Active | 64 | Active | 73 |  |
| H-WQCLTLTHRGFVLLTITVLR-OH | inactive | Active |  | 70 | Active |  |  |  | Dose-dependent effect |  |  |  | 63 | Active | 77 | Kd [16]: 8700 nM; Activity [17]: Active; Activity [18]: Active; solubility [19]: Soluble; inhibition [20]: Active |
| H-WQSLTLTHRG-OH | inactive |  |  | 60 |  | Active | Active |  | Dose-dependent effect | 1200 | 62 | Active | 51 |  |  |  |
